The test system of experiment [1] is Mycobacterium intracellulare ATCC 13950. In words: Antibacterial activity against nontuberculous mycobacteria, resazurin MIC50. It is filed as cell-based. As to conditions: ATCC13950. (In general: The colour change of resazurin is a common sign of viable cells or microbes.)
Experiment [2] deals with Mycobacterium avium ATCC 700898. The experiment is described as above. Format: cell-based. As to conditions: ATCC700898.
For experiment [3], the system named is IL-6. In words: Anti-inflammatory efficacy: IL-6 secretion in LPS-treated RAW 264.7 cells (ELISA). Format: cell-based, mouse. As to conditions: RAW 264.7 cells, 5, 10, 20, 40 ug/mL plus 1 ug/ml LPS, 24 hours, versus LPS only. On the procedure: (§1) In order to confirm the anti-inflammatory effect of the micrococcin compound (Compound 13; Micrococcin P2) prepared in Example 1 of the present invention, an inflammatory cytokine secretion amount was measured.
(§2) RAW 264.7 cells which are mouse-derived macrophage cell lines were distributed from Korean Cell Line Bank (KCLB), and a DMEM (Dulbeccon's modified Eagle's medium; PAA, Austria) medium including 1% Penicillin-Streptomycin and 10% FBS (fetal bovine serum; Gibco Laboratories) was used. Cells were cultured under the conditions of 37° C. and 5% CO2.
(§3) The cultured RAW 264.7 cells were dispensed at 2x10^5 cells/well in a 24-well plate, the micrococcin compound (Compound 13; Micrococcin P2) prepared in Example 1 was treated by concentrations (5, 10, 20, 40 ug/mL) and then treated 1 ug/ml of lipopolysaccharide (LPS), and culture was performed in an incubator (5% CO2, 37° C.) for 24 hours.
(§4) A control group was a cell group which was not treated, and as a negative control group, a cell group treated with only LPS was used.
(§5) After completion of culture, a medium of each well was collected (at 4° C., 12,000 rpm for 10 minutes) and centrifuged, a supernatant was taken, and the concentration of inflammatory cytokine (IL-6, Il-1B) in the medium was quantified using an ELISA kit (R&D system, BD).
(In an ELISA, binding on a coated surface is turned into a signal by an enzyme label.)

Experiment [4] deals with Mycobacterium abscessus ATCC 19977. In words: Antibacterial activity against nontuberculous mycobacteria, resazurin MIC50. As to conditions: Mycobacteroides abscessus, ATCC19977. It is filed as cell-based.
The subject of experiment [5] is M. tuberculosis. The experiment can be described thus: Antibacterial activity against tuberculosis bacteria, resazurin (REMA) MIC50. As to conditions: Mycobacterium tuberculosis, read-out: MIC50. Format: cell-based.
For experiment [6], the system named is Il-1B. In words: Anti-inflammatory efficacy: IL-1B secretion in LPS-treated RAW 264.7 cells (ELISA). Format: cell-based, mouse. As to conditions: RAW 264.7 cells, 5, 10, 20, 40 ug/mL plus 1 ug/ml LPS, 24 hours, versus LPS only. Here is the method:
as §1, §2, §3, §4, §5

For experiment [7], the system named is C. difficile Ribotype 027. The experiment can be described thus: Efficacy in Clostridium difficile-infected mouse model (survival). As to conditions: C57BL/6J mouse, 30 mg/kg orally once a day for 5 days. Format: in vivo.
In experiment [8] the test system is C. difficile. The experiment can be described thus: Antibacterial activity against Clostridium difficile, agar medium dilution MIC (CLSI). It is filed as cell-based. As to conditions: Clostridioides difficile.
Setting [9] is: Mycobacterium intracellulare ATCC 13950, read-out: MIC50.
Setting [10] is: Mycobacterium avium ATCC 700898, read-out: MIC50.
Setting [11] is: ATCC9689, C. difficile ATCC 9689, read-out: MIC.
The mark [12] stands for this setting: ATCC17858, C. difficile ATCC 17858, read-out: MIC.
Setting [13] is: ATCC43255, C. difficile ATCC 43255, read-out: MIC.
The mark [14] stands for this setting: ATCCBAA1871, C. difficile ATCC BAA-1871, read-out: MIC.
Setting [15] is: C. difficile Clinical isolate #1, read-out: MIC.
[16] abbreviates: C. difficile Clinical isolate #2, read-out: MIC.
The mark [17] stands for this setting: ATCC51695, C. difficile ATCC 51695, read-out: MIC.

What is called MIC50 is the lowest concentration that inhibits either 50% of growth or 50% of the strains tested, depending on the study. The MIC is the smallest concentration in the dilution series that meets the test's criterion for growth inhibition.

SMILES strings stand for the structures. Values after ≈ are worked out from the molar mass of the structure shown. Read-outs that look alike come from different tables or passages of the source.

For `CO[C@H]1/C=C/O[C@@]2(C)Oc3c(C)c(O)c4c(O)c(c(/C=N/N5CCN(C)CC5)c(O)c4c3C2=O)NC(=O)/C(C)=C\C=C\[C@H](C)[C@H](O)[C@@H](C)[C@@H](O)[C@@H](C)[C@H](OC(C)=O)[C@@H]1C` [RIF, Rifampicin], the values for the MIC50 in experiment [1] (setting [9]) and in experiment [2] (setting [10]) were 0.38 µM (≈ 0.313 µg/mL) and 6.6 µM (≈ 5.43 µg/mL), respectively.
As to `C/C=C(\NC(=O)c1csc(-c2csc(-c3ccc4c(n3)-c3csc(n3)[C@H]([C@@H](C)O)NC(=O)c3csc(n3)[C@H](C(C)C)NC(=O)c3csc(n3)/C(=C/C)NC(=O)[C@H]([C@@H](C)O)NC(=O)c3csc-4n3)n2)n1)C(=O)NCC(C)=O` [Micrococcin P2], in experiment [3], the “secretion amount of IL-6” value was “significantly decreased”. Further, the MIC50 came out at 0.033 µM (≈ 0.0377 µg/mL) in experiment [1] (Mycobacterium intracellulare); 0.028 µM (≈ 0.032 µg/mL) in experiment [2] (Mycobacterium avium); 0.654 µM (≈ 0.747 µg/mL) in experiment [4]; 0.089 µM (≈ 0.102 µg/mL) in experiment [5] (H37RV, M. tuberculosis H37Rv); 0.199 µM (≈ 0.227 µg/mL) in experiment [5] (Pan-susceptible isolate #2 (Pan-S2)); 0.356 µM (≈ 0.407 µg/mL) in experiment [5] (Pan-susceptible isolate #4 (Pan-S4)). Besides, the MIC50 in experiment [5] (Pan-susceptible isolate #6 (Pan-S6)) was 0.354 µM (≈ 0.404 µg/mL); in experiment [5] (Pan-susceptible isolate #7 (Pan-S7)), 0.208 µM (≈ 0.238 µg/mL). For the same compound, the “secretion amount of IL-1B” value in experiment [6] is recorded as “significantly decreased”. The “death by C. difficile recurrence after drug administration” value in experiment [7] (followed about 2 weeks) is listed as “no death individual occurred by C. difficile recurrence”. Further, the survival rate in experiment [7] (survival followed about 2 weeks) is reported as 100%. Further, the minimal inhibitory concentration (MIC) in experiment [8] (setting [11]) came out at 0.5 µg/mL (≈ 0.438 µM); in experiment [8] (setting [12]), 1 µg/mL (≈ 0.875 µM); in experiment [8] (setting [13]), 2 µg/mL (≈ 1.75 µM); in experiment [8] (ATCC51695) it was 1 µg/mL (≈ 0.875 µM); in experiment [8] (setting [14]) it was 1 µg/mL (≈ 0.875 µM); in experiment [8] (setting [15]), 1 µg/mL (≈ 0.875 µM). Besides, the MIC in experiment [8] (setting [16]) came to 1 µg/mL (≈ 0.875 µM).
In the case of `CN[C@H](CC(C)C)C(=O)N[C@H]1C(=O)N[C@@H](CC(N)=O)C(=O)N[C@H]2C(=O)N[C@H]3C(=O)N[C@H](C(=O)N[C@H](C(=O)O)c4cc(O)cc(O)c4-c4cc3ccc4O)[C@H](O)c3ccc(c(Cl)c3)Oc3cc2cc(c3O[C@@H]2O[C@H](CO)[C@@H](O)[C@H](O)[C@H]2O[C@H]2C[C@](C)(N)[C@H](O)[C@H](C)O2)Oc2ccc(cc2Cl)[C@H]1O` [VAN, Vancomycin], the minimum inhibitory concentration (MIC) in experiment [8] (setting [11]) stood at 2 µg/mL (≈ 1.38 µM); in experiment [8] (setting [12]), 1 µg/mL (≈ 0.69 µM); in experiment [8] (setting [13]), 1 µg/mL (≈ 0.69 µM); in experiment [8] (setting [17]) it was 2 µg/mL (≈ 1.38 µM); in experiment [8] (setting [14]), 1 µg/mL (≈ 0.69 µM); in experiment [8] (setting [15]), 4 µg/mL (≈ 2.76 µM). Moreover, in experiment [8] (setting [16]), the minimum inhibitory concentration (MIC) stood at 1 µg/mL (≈ 0.69 µM).
On to `COc1c(N2C[C@@H]3CCCN[C@@H]3C2)c(F)cc2c(=O)c(C(=O)O)cn(C3CC3)c12` [MXF, Moxifloxacin], for which the minimal inhibitory concentration (MIC) in experiment [8] (setting [11]) came to 1 µg/mL (≈ 2.49 µM); in experiment [8] (setting [12]) it was 2 µg/mL (≈ 4.98 µM); in experiment [8] (setting [13]), 2 µg/mL (≈ 4.98 µM); in experiment [8] (setting [17]), 2 µg/mL (≈ 4.98 µM); in experiment [8] (setting [14]), 32 µg/mL (≈ 79.7 µM); in experiment [8] (setting [15]), 32 µg/mL (≈ 79.7 µM). In addition, the MIC in experiment [8] (setting [16]) came to 2 µg/mL (≈ 4.98 µM).
As for `CC[C@H]1OC(=O)[C@H](C)[C@@H](O[C@H]2C[C@@](C)(OC)[C@@H](O)[C@H](C)O2)[C@H](C)[C@@H](O[C@@H]2O[C@H](C)C[C@H](N(C)C)[C@H]2O)[C@](C)(OC)C[C@@H](C)C(=O)[C@H](C)[C@@H](O)[C@]1(C)O` [CLR, Clarithromycin], the MIC50 in experiment [1] (setting [9]) came out at 0.143 µM (≈ 0.107 µg/mL); in experiment [2] (setting [10]), 0.076 µM (≈ 0.0568 µg/mL).
On to `Cc1ncc([N+](=O)[O-])n1CCO` [MDZ, Metronidazole], for which the MIC in experiment [8] (setting [11]) is 1 µg/mL (≈ 5.84 µM); in experiment [8] (setting [12]) it was 1 µg/mL (≈ 5.84 µM); in experiment [8] (setting [13]) it was 2 µg/mL (≈ 11.7 µM); in experiment [8] (setting [17]), 2 µg/mL (≈ 11.7 µM); in experiment [8] (setting [14]), 2 µg/mL (≈ 11.7 µM); in experiment [8] (setting [15]), 1 µg/mL (≈ 5.84 µM). In addition, the MIC in experiment [8] (setting [16]) amounted to 2 µg/mL (≈ 11.7 µM).

For the origin of these results see patent publication US20240277800A1, “PHARMACEUTICAL COMPOSITION COMPRISING MACROCOSINE COMPOUND AND METHOD FOR PREPARING MACROCOSINE COMPOUND” (priority 2021, published 2024).
